Results as given in patent publication US20250289822A1, “SOLID FORMS OF HIV INTEGRASE INHIBITORS” (priority 2024, published 2025).

Assay: Hygroscopicity by dynamic vapor sorption (DVS): water sorption/desorption as a function of relative humidity
Type: physicochemical
Procedure: Hygroscopicity was studied using dynamic vapor sorption (DVS, TA Q5000 SA, TA Instruments, New Castle, DE or DVS, DVS Intrinsic, Surface Measurement Systems, London, UK). […] The water sorption and desorption were studied as a function of relative humidity (RH) at 25° C. […] Data analysis was performed using Universal Analysis 2000 Version 4.7A (TA Instruments, New Castle, DE) for TA DVS runs and Microsoft Excel for SMS DVS runs.

With `C[C@@H]1C=C[C@H](C)N2CN1n1cc(C(=O)NCc3c(F)cc(F)cc3F)c(=O)c(O)c1C2=O` [Compound of Formula I, Form I, (1S,2R,5S)-8-hydroxy-2,5-dimethyl-7,9-dioxo-N-(2,4,6-trifluorobenzyl)-2,5,7,9-tetrahydro-1,6-methanopyrido[1,2-b][1,2,5]triazonine-10-carboxamide] the “solid form change after the DVS experiment” value (material checked post DVS experiment) was “not have changed form” and the “water absorbed (DVS)” value (up to 95% RH at 25° C.) was “about 0.15%”.
